Where two headings read alike, the source gives them in different places.
Key:
[1] = test system: mice receiving 60 mg/kg/day 3-nitropropionic acid (progressive lethal mitochondrial energy failure); experiment: Protection against mortality caused by 3-nitropropionic acid (Example 6, 11 day study); format: in vivo, Female CD-1 mice; details: for Median Survival / % Survival: 3-NP 60 mg/kg/day ip, UTA 1000 mg/kg b.i.d. or AcAcDAU 1113.5 mg/kg b.i.d. oral; for survival time versus vehicle alone: UTA 1000 mg/kg or AcAcDAU 1113.5 mg/kg b.i.d.; for % Survival: end of 11 day study
Experimental: 5′-O-acetoacetyl-2′,3′-di-O-acetyluridine (AcAcDAU) delivers both uridine and acetoacetate (and beta-hydroxybutyrate [BHB] derived from acetoacetate) into the circulation after oral administration. A study was designed to compare relative efficacy of UTA versus AcAcDAU in a model of progressive lethal mitochondrial energy failure. Mitochondrial dysfunction was produced by daily administration of 3-nitropropionic acid (3-NP; 60 mg/kg/day) by intraperitoneal injection. 3-NP is an irreversible inhibitor of succinate dehydrogenase (Complex II of the mitochondrial electron transport chain). Daily dosing with 3-NP results in progressive diminution of mitochondrial capacity to maintain ATP production, eventually resulting in mortality from both neurodegeneration and cardiomyopathy.
Female CD-1 mice at approximately 16 weeks of age were divided into weight-matched groups of 10 mice each. All mice received daily intraperitoneal injections of 3-NP (60 mg/kg) in a volume of 0.01 ml per gram of body weight.
In addition to daily injections of 3-NP, the three groups of mice received 1) Vehicle; 2) UTA; or 3) AcAcDAU. This experiment used the AcAcDAU from Example 2. These treatments were administered orally, by gavage, in a volume of 0.02 ml per gram of body weight.
• 1. Vehicle Control (0.75% HPMC; hydroxypropylmethylcellulose) • 2. Uridine triacetate 1000 mg/kg BID (suspended in 0.75% HPMC) • 3. AcAcDAU 1113.5 mg/kg (molar equivalent to 1000 mg/kg UTA) BID (dissolved in 0.75% HPMC)
(§1) Body weights were recorded each day to adjust drug doses as mice lost weight during repeated treatment with 3-NP.
Survival times (median survival; the time point at which 50% of animals in a group had died) and percent survival at the end of the 11 day study were used to quantify and compare protective effects of the test agents.

[2] = Plasma uridine and [uridine+uracil] in mice after oral administration of uridine prodrugs (Example 4); format: in vivo, Female CD-1 mice; details: for systemic uridine delivery after oral administration: oral gavage, dose equimolar to 600 mg/Kg UTA, result in words
Text: Chemical(s): HPMC (Hydroxypropyl)methyl cellulose (SIGMA-Aldrich: cat #H3785, CAS 9004-65-3); uridine triacetate (2′,3′,5′-tri-O-acetyluridine): UTA, Item Code D000156, Lot #Q000001095, made by Almac Sciences; 2′,3′,5′-tri-O-(acetoacetyl)uridine: Tri-AcAcU; 5′-O-(acetoacetyl)-2′,3′-di-O-acetyluridine: AcAcDAU; 2′,3′-di-O-acetyl-5′-O-heptanoyluridine: DA-HU. (Note: the AcAcDAU used in this experiment was the mixture of 9.4 parts 5′-O-(acetoacetyl)-2′,3′-di-O-acetyluridine and 1 part a combination of 5′-O-(acetoacetyl)-2′-O-acetyl-3′-O-formyluridine and 5′-O-(acetoacetyl)-3′-O-acetyl-2′-O-formyluridine from Example 1 above.)
(§2) Vehicle: Aqueous HPMC was used as a vehicle for oral administration of the uridine derivatives.
(§3) Dosing Formulation: UTA and other uridine derivatives were prepared in 0.75% HPMC. UTA and other uridine derivatives were added to 0.75% HPMC and homogenized to eliminate clumps. The suspension were made up to the desired volume and concentration and sonicated to disaggregate any small leftover clumps into fine particles. Suspensions were stored at 4° C. until use. Suspensions were used within 24 hrs of preparation.
Dosing: Mice received a dose of 600 mg/Kg UTA gavaged at 0.02 ml/g body weight. Other uridine derivatives were dosed in the same manner at concentrations containing amounts of uridine equimolar to UTA.
Animals: Female CD-1 mice.
The general initial layout for the experiment involved gavaging groups of 6 mice with uridine derivatives and obtaining blood samples at several times points thereafter (3 mice were bled for 2 time points (15 and 60 minutes), and another 3 mice were bled for the other 2 time points (30 and 120 minutes). Each experiment included an HPMC (vehicle only) time point with 3 mice to establish a baseline for blood uridine.
Blood samples were collected into plasma separation tubes, which were centrifuged immediately after blood collection, and aliquots of plasma were frozen for subsequent processing. Plasma was later deproteinated, and uridine and uracil were quantified by liquid chromatography using UV absorbance detection and mass spectrometry.
Delivery of uridine into the bloodstream was assessed by monitoring plasma uridine and the sum of uridine and uracil [uridine+uracil], as uracil is the first product in enzymatic degradation of uridine. Mice convert administered uridine to uracil more rapidly and extensively than do humans.

[3] = test system: mice receiving 60 mg/kg/day 3-nitropropionic acid (progressive mitochondrial failure); experiment: Protection against mortality due to 3-nitropropionic acid, higher doses (Example 7, 10 day study); format: in vivo; details: for survival time versus vehicle alone: UTA 2000 mg/kg or AcAcDAU 2227 mg/kg b.i.d.; for % Survival: end of 10 day study, 3-NP 60 mg/kg/day ip, UTA 2000 mg/kg b.i.d. or AcAcDAU 2227 mg/kg b.i.d. oral
Experimental: In this example the effect of higher doses of UTA (2000 mg/kg/dose) versus equimolar AcAcDAU (2227 mg/kg/dose) were compared in the same model system.
• 1. Vehicle Control (0.75% HPMC; hydroxypropylmethylcellulose) • 2. Uridine triacetate 2000 mg/kg BID (suspended in 0.75% HPMC)
AcAcDAU 2227 mg/kg (molar equivalent to 2000 mg/kg UTA) BID (dissolved in 0.75% HPMC). This experiment used the AcAcDAU from Example 2. The treatment schedule was as follows:
as §1
Percent survival of mice in each group of 10 mice at the end of the 10 day study were used to quantify and compare protective effects of the test agents.

[4] = Plasma uridine, uracil and beta-hydroxybutyrate in mice after oral administration of AcAcDAU (Example 5); format: in vivo, Female CD-1 mice; details: 2350 mg/Kg oral, 15-120 min, result in words
Text: An important feature of 5′-O-(acetoacetyl)-2′,3′-di-O-acetyluridine (AcAcDAU) is that it yields simultaneous or concurrent delivery of both uridine and acetoacetate via a single drug molecule. Acetoacetate in plasma is in equilibrium with beta-hydroxybutyrate (BHB) mirroring free NADH/NAD+ ratios in hepatic mitochondria, and heavily favoring BHB as the more prevalent of the two ketone bodies under normal physiological conditions. Moreover, BHB is stable after blood sampling and processing, whereas acetoacetate is labile. Therefore, plasma BHB was measured along with plasma uridine in mice receiving oral AcAcDAU.
Chemical(s): HPMC (Hydroxypropyl) methyl cellulose (SIGMA-Aldrich: cat #H3785, CAS 9004-65-3), 5′-O-(acetoacetyl)-2′,3′-di-O-acetyluridine (AcAcDAU; lot #432168B). This experiment used the AcAcDAU from Example 2.
as §2
as §3, with “HPMC. AcAcDAU was” for “HPMC. UTA and other uridine derivatives were”, “The suspensions” for “The suspension”
Dosing: Mice received a dose of 2350 mg/Kg AcAcDAU gavaged at 0.02 ml/g body weight. Control mice received only the 0.75% HPMC vehicle
General Experimental Design: The general layout for the experiment involved gavaging mice with AcAcDAU and obtaining blood samples at several time points thereafter (see table below for details). The experiment included a group with 2 mice gavaged with HPMC only and bled at 60 and 120 min for determination of baseline plasma uridine.
Mice received 0.02 ml/g bodyweight of a suspension (0.75% hydroxypropylmethylcellulose in water) with a concentration of AcAcDAU of 117 mg/ml for a dose of 2,350 mg/Kg body weight. […]

[5] = humans; cited from earlier work
[6] = mice; cited from earlier work

| systemic uridine delivery after oral administration [2] | SMILES | Median Survival [1] [days] | survival time versus vehicle alone ([1]; result in words) | % Survival [1] | survival time versus vehicle alone ([3]; result in words) | % Survival [3] | other results |
| --- | --- | --- | --- | --- | --- | --- | --- |
|  | CC(=O)CC(=O)OC[C@H]1O[C@@H](n2ccc(=O)[nH]c2=O)[C@H](OC(C)=O)[C@@H]1OC(C)=O [AcAcDAU, 5′-O-(acetoacetyl)-2′,3′-di-O-acetyluridine] | >11 | improved survival time | 50% (2/10) | improved survival time | 100% (10/10) | median survival time compared with UTA ([1]; AcAcDAU 1113.5 mg/kg b.i.d. vs equimolar UTA, result in words): longer; delivery of uridine and uridine catabolites ([uridine+uracil]) into the circulation compared with equimolar uridine triacetate ([2]; oral, equimolar to 600 mg/Kg UTA, AcAcDAU was the 9.4:1 mixture from Example 1, result in words): more; survival at the 10 day time point compared with equimolar UTA ([3]; AcAcDAU 2227 mg/kg b.i.d. vs UTA 2000 mg/kg b.i.d., result in words): better survival; Plasma beta-hydroxybutyrate after oral administration [4]: elevated; Plasma uracil after oral administration [4]: elevated; Plasma uridine after oral administration [4]: elevated |
| delivered little uridine | CC(=O)CC(=O)OC[C@H]1O[C@@H](n2ccc(=O)[nH]c2=O)[C@H](O)[C@@H]1O [AcAcU, 5′-O-(acetoacetyl)uridine] |  |  |  |  |  |  |
| relatively poor | CCCCCCC(=O)OC[C@H]1O[C@@H](n2ccc(=O)[nH]c2=O)[C@H](OC(C)=O)[C@@H]1OC(C)=O [DA-HU, 2′,3′-di-O-acetyl-5′-O-heptanoyluridine, reference compound] |  |  |  |  |  |  |
| relatively poor | CC(=O)CC(=O)OC[C@H]1O[C@@H](n2ccc(=O)[nH]c2=O)[C@H](OC(=O)CC(C)=O)[C@@H]1OC(=O)CC(C)=O [Tri-AcAcU, 2′,3′,5′-tri-O-(acetoacetyl)uridine, reference compound] |  |  |  |  |  |  |
|  | CC(=O)OC[C@H]1O[C@@H](n2ccc(=O)[nH]c2=O)[C@H](OC(C)=O)[C@@H]1OC(C)=O [UTA, 2′,3′,5′-tri-O-acetyluridine, reference compound] | 7 | improved survival time | 30% (5/10) | improved survival time | 70% (7/10) |  |
|  | O=c1ccn([C@@H]2O[C@H](CO)[C@@H](O)[C@H]2O)c(=O)[nH]1 [uridine] |  |  |  |  |  | bioavailability (oral delivery) [5]: approximately 7%; bioavailability (oral delivery) [6]: approximately 7% |
